In US5487990A (The General Hospital Corporation, priority 1992, dated 1996):

T1: Acetyl-CoA Hydrolase from S. cerevisiae (Saccharomyces cerevisiae, UniProt P32316)
T1 sequence (P32316 1-526): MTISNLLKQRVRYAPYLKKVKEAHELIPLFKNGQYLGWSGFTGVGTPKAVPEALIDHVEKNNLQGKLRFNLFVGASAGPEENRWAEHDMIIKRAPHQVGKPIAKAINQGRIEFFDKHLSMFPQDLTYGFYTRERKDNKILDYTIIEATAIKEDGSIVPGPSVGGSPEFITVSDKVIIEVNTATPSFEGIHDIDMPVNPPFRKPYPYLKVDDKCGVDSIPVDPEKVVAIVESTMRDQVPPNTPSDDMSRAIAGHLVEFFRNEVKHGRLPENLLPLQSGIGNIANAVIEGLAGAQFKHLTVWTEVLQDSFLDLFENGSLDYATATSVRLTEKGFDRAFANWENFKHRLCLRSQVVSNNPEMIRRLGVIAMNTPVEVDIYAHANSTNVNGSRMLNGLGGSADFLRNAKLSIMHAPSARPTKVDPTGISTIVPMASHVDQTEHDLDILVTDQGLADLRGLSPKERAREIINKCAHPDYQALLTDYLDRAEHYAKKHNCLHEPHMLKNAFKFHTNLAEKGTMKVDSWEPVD

B1: Acetyl-CoA Hydrolase from S. cerevisiae (Saccharomyces cerevisiae S288C) (protein)
chain: T1 sequence (P32316 1-526)

Assays:
[1] = target: T1, Acetyl-CoA Hydrolase from S. cerevisiae; experiment: Substrate specificity, colorimetric assay (DNTB, A412); format: biochemical; conditions: read-out: Relative Activity (%)
[2] = target: T1, Acetyl-CoA Hydrolase from S. cerevisiae; experiment: biochemical
Experimental: The assay mixture was incubated at 30° C. for 0.30 s, 1 min, 2 min, 3 min, 4 min, and 5 min. The reaction was stopped by adding 20 μl of 10 M acetic acid. The sample was evaporated by N2 stream at 30° C. to dryness in a fume hood, dissolved in 100 μl H2 O, and transferred to a scintillation vial containing 10 ml Ready-Solv EP scintillation cocktail. The sample tube was washed twice with 100 μl H2 O, each wash was transferred to the scintillation vial, and the radioactivity was determined by scintillation counting for 1 min.
nucleotides and divalent cations in 100 mM potassium phosphate, pH 7.4.
The enzyme activity was determined under standard radioactive assay
conditions using ACTH (1-24) (N = 3), as described in the Examples.
acylCoA in 100 mM phosphate buffer, pH 7.4.

[3] = test system: mitochondrial enzyme from hamster brown fat; conditions: cited from earlier work
[4] = substrate: CC(=O)SCCNC(=O)CCNC(=O)[C@H](O)C(C)(C)COP(=O)(O)OP(=O)(O)OC[C@H]1O[C@@H](n2cnc3c(N)ncnc32)[C@H](O)[C@@H]1OP(=O)(O)O; experiment: purified protein, by the assay type; conditions: other: substrate acetyl-CoA; Lineweaver-Burk plot; pH 7.4; 30.0 °C
[5] = pH 7.4, read-out: Enzyme Activity (%)

Molecule	activity at 250 µM [1] [%]	effect on yeast enzyme activity (in words) [2]	remaining activity at 100 µM [2, 5] [%]	remaining activity at 1000 µM [2, 5] [%]	remaining activity at 5000 µM [2, 5] [%]	Km ([2]; substrate acetyl-CoA, Lineweaver-Burk plot, read-out: apparent Km) [µM]	Km [3] [µM]	Km [4] [µM]
CC(=O)SCCNC(=O)CCNC(=O)[C@H](O)C(C)(C)COP(=O)(O)OP(=O)(O)OC[C@H]1O[C@@H](n2cnc3c(N)ncnc32)[C@H](O)[C@@H]1OP(=O)(O)O [Acetyl-CoA, acetyl coenzyme A]	100	inhibited most effectively	66	28	5	62	51	–
B1	–	–	–	–	–	–	–	62
